Tested on: Chronic mild stress model in rats
Experiment: Chronic mild stress model in rats, serum marker analysis
Excerpt: The biochemical changes induced in the animals studied in the stress models lead to increases in inflammatory mediators/markers.
At the end of the present study, terminal serum samples were collected for marker analysis to evaluate the effects of stress with and without drug on the levels of about 60 blood markers.
Serum samples were withdrawn from the tail, without stunning, during the daytime (09:00-17:00) 24 hrs after the last drug injection. Blood was collected into BD vacutainers containing clot activator and gel for serum preparation, inverted 5 times and maintained on ice until centrifugation at 3000 rpm for 10 min at 4° C. Serum was decanted, placed on ice, and at the end of the day stored at −80° C.

**Q.** How did the “CRP (C Reactive Protein), median value” (1st study, 5 mg/kg, serum) turn out when CN(C)CCC[C@@]1(c2ccc(F)cc2)OCc2cc(C#N)ccc21 [ESC, escitalopram, reference compound] was run?
**A.** Its value is 1060.00 µg/mL.

**Q.** What about the “Eotaxin, median value” (1st study, 5 mg/kg, serum) of the same compound?
**A.** The value was 1300.00 pg/mL.

**Q.** What about the “FGF-9 (Fibroblast Growth Factor-9), median value” (1st study, 5 mg/kg, serum) of the same compound?
**A.** Its value is 0.90 ng/mL.

**Q.** What about the “GCP-2 (Granulocyte Chemotactic Protein-2), median value” (1st study, 5 mg/kg, serum) of the same compound?
**A.** Its value is 0.21 ng/mL.

**Q.** What about the “Growth Hormone, median value” (1st study, 5 mg/kg, serum) of the same compound?
**A.** Its value is 1.38 ng/mL.

**Q.** What about the “IL-1alpha (Interleukin-1alpha), median value” (1st study, 5 mg/kg, serum) of the same compound?
**A.** Its value is 15.40 pg/mL.

**Q.** And the “IL-2 (Interleukin-2), median value” (1st study, 5 mg/kg, serum)?
**A.** The value was 38.80 pg/mL.

**Q.** And the “IL-4 (Interleukin-4), median value” (1st study, 5 mg/kg, serum)?
**A.** Its value is 51.70 pg/mL.

**Q.** And the “IL-7 (Interleukin-7), median value” (1st study, 5 mg/kg, serum)?
**A.** Its value is 0.22 ng/mL.

**Q.** What about the “IL-10 (Interleukin-10), median value” (1st study, 5 mg/kg, serum) of the same compound?
**A.** Its value is 317.00 pg/mL.

**Q.** What about the “IL-11 (Interleukin-11), median value” (1st study, 5 mg/kg, serum) of the same compound?
**A.** The value was 166.00 pg/mL.

**Q.** And the “IP-10 (Inducible Protein-10), median value” (1st study, 5 mg/kg, serum)?
**A.** The value was 194.00 pg/mL.

**Q.** What about the “IgA (Immunoglobulin A), median value” (1st study, 5 mg/kg, serum) of the same compound?
**A.** Its value is 6.54 µg/mL.

**Q.** What about the “Insulin, median value” (1st study, 5 mg/kg, serum) of the same compound?
**A.** Its value is 11.30 uIU/mL.

**Q.** And the “LIF (Leukemia Inhibitory Factor), median value” (1st study, 5 mg/kg, serum)?
**A.** Its value is 67.20 pg/mL.

**Q.** And the “Leptin, median value” (1st study, 5 mg/kg, serum)?
**A.** The value was 2.62 ng/mL.

**Q.** What about the “Lymphotactin, median value” (1st study, 5 mg/kg, serum) of the same compound?
**A.** Its value is 68.00 pg/mL.

**Q.** What about the “M-CSF (Macrophage-Colony Stimulating Factor), median value” (1st study, 5 mg/kg, serum) of the same compound?
**A.** Its value is 941.00 ng/mL.

**Q.** What about the “MCP-1 (Monocyte Chemoattractant Protein-1), median value” (1st study, 5 mg/kg, serum) of the same compound?
**A.** Its value is 1500.00 pg/mL.

**Q.** What about the “MCP-3 (Monocyte Chemoattractant Protein-3), median value” (1st study, 5 mg/kg, serum) of the same compound?
**A.** The value was 885.00 pg/mL.

**Q.** What about the “MCP-5 (Monocyte Chemoattractant Protein-5), median value” (1st study, 5 mg/kg, serum) of the same compound?
**A.** Its value is 0.87 pg/mL.

**Q.** What about the “MIP-1alpha (Macrophage Inflammatory Protein-1alpha), median value” (1st study, 5 mg/kg, serum) of the same compound?
**A.** The value was 244.00 ng/mL.

**Q.** What about the “MIP-1gamma (Macrophage Inflammatory Protein-1gamma), median value” (1st study, 5 mg/kg, serum) of the same compound?
**A.** The value was 11.50 ng/mL.

**Q.** What about the “MIP-2 (Macrophage Inflammatory Protein-2), median value” (1st study, 5 mg/kg, serum) of the same compound?
**A.** Its value is 0.09 pg/mL.

**Q.** And the “MPO (Myeloperoxidase), median value” (1st study, 5 mg/kg, serum)?
**A.** Its value is 54.60 ng/mL.

**Q.** What about the “NGAL (Lipocalin-2), median value” (1st study, 5 mg/kg, serum) of the same compound?
**A.** The value was 0.22 ng/mL.

**Q.** What about the “Osteopontin, median value” (1st study, 5 mg/kg, serum) of the same compound?
**A.** Its value is 310.00 ng/mL.

**Q.** What about the “SAP (Serum Amyloid P), median value” (1st study, 5 mg/kg, serum) of the same compound?
**A.** Its value is 178.00 µg/mL.

**Q.** And the “SCF (Stem Cell Factor), median value” (1st study, 5 mg/kg, serum)?
**A.** Its value is 16.95 pg/mL.

**Q.** And the “SGOT (Serum Glutamic-Oxaloacetic Transaminase), median value” (1st study, 5 mg/kg, serum)?
**A.** Its value is 0.31 µg/mL.

**Q.** And the “TIMP-1 (Tissue Inhibitor of Metalloproteinase Type-1), median value” (1st study, 5 mg/kg, serum)?
**A.** The value was 0.22 ng/mL.

**Q.** What about the “TPO (Thrombopoietin), median value” (1st study, 5 mg/kg, serum) of the same compound?
**A.** The value was 142.00 ng/mL.

**Q.** And the “Tissue Factor, median value” (1st study, 5 mg/kg, serum)?
**A.** Its value is 0.15 ng/mL.

**Q.** And the “VCAM-1 (Vascular Cell Adhesion Molecule-1), median value” (1st study, 5 mg/kg, serum)?
**A.** Its value is 409.00 ng/mL.

**Q.** What about the “VEGF (Vascular Endothelial Cell Growth Factor), median value” (1st study, 5 mg/kg, serum) of the same compound?
**A.** Its value is 106.00 pg/mL.

**Q.** What about the “Apo A1 (Apolipoprotein A1), median value” (1st study, 5 mg/kg, serum 24 hrs after last drug injection) of the same compound?
**A.** The value was 8.40 µg/mL.

**Q.** And the “reversal of chronic mild stress induced changes in serum inflammatory markers / cytokine levels” value (rats exposed to chronic mild stress, compared with non-stressed controls)?
**A.** The value was “inactive at most of these changes”.
